Counter-ions that a name gives are not always drawn.
Assay: Sensory testing: taste testers rate sweetness of aqueous sweetener compositions without and with A1
Type: in vivo, human
Conditions: scale from 1 to 10
Description: Compositions of various sweetening agents were prepared without any additive and with the sodium salt of N-(1-((4-amino-2,2-dioxo-1H-benzo[c][1,2,6]thiadiazin-5-yl)oxy)-2-methyl-propan-2-yl)isonicotinamide (A1) added at various concentrations. Taste testers were asked to rate the sweetness of the resulting aqueous compositions for sweetness on a scale from 1 to 10.

Compound: CC(C)(COc1cccc2c1C(N)=NS(=O)(=O)N2)NC(=O)c1ccncc1 [A1, sodium salt of N-(1-((4-amino-2,2-dioxo-1H-benzo[c][1,2,6]thiadiazin-5-yl)oxy)-2-methyl-propan-2-yl)isonicotinamide]
- sweetness rating (aqueous Allulose (3.5%) with 4 ppm A1): 3.7
- sweetness rating (aqueous Allulose (3.5%) with 8 ppm A1): 4.7
- sweetness rating (aqueous Allulose (3.5%) with 12 ppm A1): 4.1
- sweetness rating (aqueous Allulose (3.5%) with 16 ppm A1): 5.5
- sweetness rating (aqueous D-(+)-Glucose (7%) with 4 ppm A1): 4.5
- sweetness rating (aqueous D-(+)-Glucose (7%) with 8 ppm A1): 4.2
- sweetness rating (aqueous D-(+)-Glucose (7%) with 12 ppm A1): 5.2
- sweetness rating (aqueous D-(+)-Glucose (7%) with 16 ppm A1): 5.7
- sweetness rating (aqueous Erythritol (5%) with 4 ppm A1): 4.4
- sweetness rating (aqueous Erythritol (5%) with 8 ppm A1): 4.4
- sweetness rating (aqueous Erythritol (5%) with 12 ppm A1): 5.7
- sweetness rating (aqueous Erythritol (5%) with 16 ppm A1): 6.0
- sweetness rating (aqueous Fructose (7%) with 4 ppm A1): 7.1
- sweetness rating (aqueous Fructose (7%) with 8 ppm A1): 7.4
- sweetness rating (aqueous Fructose (7%) with 12 ppm A1): 8.0
- sweetness rating (aqueous Fructose (7%) with 16 ppm A1): 8.3
- sweetness rating (aqueous HFCS (7%) with 4 ppm A1): 5.9
- sweetness rating (aqueous HFCS (7%) with 8 ppm A1): 7.2
- sweetness rating (aqueous HFCS (7%) with 12 ppm A1): 7.4
- sweetness rating (aqueous Reb M (200 ppm) with 4 ppm A1): 5.3
- sweetness rating (aqueous Reb M (200 ppm) with 8 ppm A1): 6.3
- sweetness rating (aqueous Reb M (200 ppm) with 12 ppm A1): 6.1
- sweetness rating (aqueous Reb M (200 ppm) with 16 ppm A1): 7.3
- sweetness rating (aqueous Sucralose (80 ppm) with 4 ppm A1): 6.1
- sweetness rating (aqueous Sucralose (80 ppm) with 8 ppm A1): 6.6
- sweetness rating (aqueous Sucralose (80 ppm) with 12 ppm A1): 7.1
- sweetness rating (aqueous Sucralose (80 ppm) with 16 ppm A1): 7.0
- sweetness rating (aqueous Sucrose (5%) with 4 ppm A1): 6.4
- sweetness rating (aqueous Sucrose (5%) with 8 ppm A1): 7.3
- sweetness rating (aqueous Sucrose (5%) with 12 ppm A1): 8.0

Compound: C=C1C[C@@]23CC[C@H]4[C@@](C)(CCC[C@@]4(C)C(=O)O[C@@H]4O[C@H](CO)[C@@H](O)[C@H](O[C@@H]5O[C@H](CO)[C@@H](O)[C@H](O)[C@H]5O)[C@H]4O[C@@H]4O[C@H](CO)[C@@H](O)[C@H](O)[C@H]4O)[C@@H]2CC[C@]1(O[C@@H]1O[C@H](CO)[C@@H](O)[C@H](O[C@@H]2O[C@H](CO)[C@@H](O)[C@H](O)[C@H]2O)[C@H]1O[C@@H]1O[C@H](CO)[C@@H](O)[C@H](O)[C@H]1O)C3 [Reb M, Rebaudioside M, reference compound]
- sweetness rating (aqueous Reb M (200 ppm), No A1): 4.7

Compound: O=C[C@H](O)[C@@H](O)[C@H](O)[C@H](O)CO [D-(+)-Glucose, reference compound]
- sweetness rating (aqueous D-(+)-Glucose (7%), No A1): 3.8

Compound: OC[C@H]1O[C@@](CO)(O[C@H]2O[C@H](CO)[C@@H](O)[C@H](O)[C@H]2O)[C@@H](O)[C@@H]1O [Sucrose, reference compound]
- sweetness rating (aqueous Sucrose (5%), No A1): 3.6

Compound: OC[C@H]1O[C@H](O[C@]2(CCl)O[C@H](CCl)[C@@H](O)[C@@H]2O)[C@H](O)[C@@H](O)[C@H]1Cl [Sucralose, reference compound]
- sweetness rating (aqueous Sucralose (80 ppm), No A1): 3.3

Compound: OC[C@@H](O)[C@@H](O)CO [Erythritol, reference compound]
- sweetness rating (aqueous Erythritol (5%), No A1): 4.0

Compound: O=C(CO)C(O)C(O)C(O)CO (stereo not shown) [Allulose, reference compound]
- sweetness rating (aqueous Allulose (3.5%), No A1): 3.0

Compound: O=C(CO)[C@@H](O)[C@H](O)[C@H](O)CO [Fructose, reference compound]
- sweetness rating (aqueous Fructose (7%), No A1): 7.1

— US20220361547A1, “TASTE MODIFYING COMPOSITIONS AND USES THEREOF” (Firmenich Incorporated, priority 2019, published 2022)
